From ChEMBL document CHEMBL4196217, “Structure-Based Drug Design and Identification of H2O-Soluble and Low Toxic Hexacyclic Camptothecin Derivatives with Improved Efficacy in Cancer and Lethal Inflammation Models in Vivo” (J Med Chem, 2018)
Activity calls are given as the source filed them. The calls are words filed in the database; no cut-off is given here.

How the values were obtained:
Mus musculus [1] = test: Toxicity in Balb/C mouse administered as daily dose for 1 week measured daily for up to 28 days; assay type: organism-based; conditions: in vivo
[2] = Aqueous solubility of the compound; assay type: physicochemical; conditions: buffer
Mus musculus [3] = test: Toxicity in Balb/C mouse administered as single dose measured daily for up to 28 days; assay type: organism-based; conditions: in vivo, 672 h
A549 = test: cells; conditions: Homo sapiens, A549, 48 h
Description: Cytotoxicity in human A549 cells assessed as reduction in cell viability incubated for 48 hrs by MTT assay

QGY-7703 = test: Cytotoxicity in human QGY7703 cells assessed as reduction in cell viability incubated for 48 hrs by MTT assay; assay type: functional, cell-based; conditions: QGY-7703, 48 h
SMMC-7721 = test: Cytotoxicity in human SMMC7721 cells assessed as reduction in cell viability incubated for 48 hrs by MTT assay; assay type: functional, cell-based; conditions: SMMC-7721, 48 h
MCF7 = test: cells; conditions: Homo sapiens, MCF7, 48 h
Description: Cytotoxicity in human MCF7 cells assessed as reduction in cell viability incubated for 48 hrs by MTT assay

KB = test: Cytotoxicity in human KB cells assessed as reduction in cell viability incubated for 48 hrs by MTT assay; assay type: functional, cell-based
MDA-MB-231 = test: Cytotoxicity in human MDA-MB-231 cells assessed as reduction in cell viability incubated for 48 hrs by MTT assay; assay type: functional, cell-based; conditions: MDA-MB-231, 48 h
MGC-803 = test: Cytotoxicity in human MGC803 cells assessed as reduction in cell viability incubated for 48 hrs by MTT assay; assay type: functional, cell-based; conditions: MGC-803, 48 h
HepG2 [4] = test: Cytotoxicity in human HepG2 cells assessed as reduction in cell viability incubated for 48 hrs by MTT assay; assay type: functional, cell-based; conditions: HepG2, 48 h
Bel-7402 = test: Cytotoxicity in human Bel7402 cells assessed as reduction in cell viability incubated for 48 hrs by MTT assay; assay type: functional, cell-based; conditions: Bel-7402, 48 h
SGC-7901 = test: Cytotoxicity in human SGC7901 cells assessed as reduction in cell viability incubated for 48 hrs by MTT assay; assay type: functional, cell-based; conditions: SGC-7901, 48 h
[5] = biological target: T1, DNA topoisomerase 1 (Homo sapiens) (UniProt P11387); test: Inhibition of human recombinant topoisomerase-1 activity at 100 uM using supercoiled pHOT-1 DNA incubated for 30 mins by ethidium bromide free agarose gel elctrophoresis method
T1 sequence (whole entry): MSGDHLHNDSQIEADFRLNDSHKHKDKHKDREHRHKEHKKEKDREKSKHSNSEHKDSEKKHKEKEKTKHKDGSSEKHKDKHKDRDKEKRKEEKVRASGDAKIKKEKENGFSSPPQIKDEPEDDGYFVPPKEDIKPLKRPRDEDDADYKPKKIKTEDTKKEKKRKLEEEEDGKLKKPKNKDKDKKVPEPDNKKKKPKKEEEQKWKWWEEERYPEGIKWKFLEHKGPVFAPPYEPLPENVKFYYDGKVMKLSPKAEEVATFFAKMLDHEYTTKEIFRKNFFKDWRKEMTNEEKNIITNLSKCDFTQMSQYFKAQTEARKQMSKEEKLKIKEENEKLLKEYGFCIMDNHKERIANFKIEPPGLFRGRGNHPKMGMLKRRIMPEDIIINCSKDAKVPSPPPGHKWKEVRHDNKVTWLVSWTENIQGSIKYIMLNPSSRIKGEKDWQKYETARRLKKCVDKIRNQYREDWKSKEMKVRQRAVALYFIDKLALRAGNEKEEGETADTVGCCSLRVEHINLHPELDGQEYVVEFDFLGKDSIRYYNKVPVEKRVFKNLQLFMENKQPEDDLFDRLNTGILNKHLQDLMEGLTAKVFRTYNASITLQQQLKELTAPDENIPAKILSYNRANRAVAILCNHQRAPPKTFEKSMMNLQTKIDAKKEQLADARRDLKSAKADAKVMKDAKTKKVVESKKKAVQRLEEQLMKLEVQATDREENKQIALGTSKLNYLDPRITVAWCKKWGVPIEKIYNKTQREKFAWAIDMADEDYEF

[6] = biological target: T1, DNA topoisomerase 1 (Homo sapiens); test: Inhibition of human recombinant topoisomerase-1 activity at 50 uM using supercoiled pHOT-1 DNA incubated for 30 mins by ethidium bromide free agarose gel elctrophoresis method
[7] = biological target: T1, DNA topoisomerase 1 (Homo sapiens); test: Inhibition of human recombinant topoisomerase-1-mediated DNA cleavage in at 50 uM using supercoiled pHOT-1 DNA incubated for 30 mins by ethidium bromide staining based agarose gel elctrophoresis method
Mus musculus [8] = test: Reduction in IL6 level in C57BL/6 mouse model of LPS-induced sepsis at 10 mg/kg, po dosed 0.5 hrs before LPS injection followed by 20 mg/kg, po dosing at 1 hr, 4 hrs, and 8 hrs after LPS treatment; assay type: functional, organism-based
[9] = biological target: T1, DNA topoisomerase 1 (Homo sapiens); test: Inhibition of human recombinant topoisomerase-1-mediated DNA cleavage in at 100 uM using supercoiled pHOT-1 DNA incubated for 30 mins by ethidium bromide staining based agarose gel elctrophoresis method
HepG2 [10] = test: Antitumor activity against human HepG2 cells xenografted in Balb/C mouse assessed as inhibition of tumor growth at dosed intravenously once per week for 30 days followed by 2 weeks observation; assay type: functional, organism-based
Mus musculus [11] = test: Reduction in IL6 level in C57BL/6 mouse model of LPS-induced sepsis at 10 mg/kg, po dosed 0.5 hrs before LPS injection followed by 10 mg/kg, po dosing at 1 hr, 4 hrs, and 8 hrs after LPS treatment; assay type: functional, organism-based
SK-N-SH = test: Cytotoxicity in human SK-N-SH cells assessed as reduction in cell viability incubated for 48 hrs by MTT assay; assay type: functional, cell-based

SMILES | IC50 (A549) | IC50 (QGY-7703) | IC50 (SMMC-7721) | IC50 (MCF7) | IC50 (KB) | IC50 (MDA-MB-231) | IC50 (MGC-803) | IC50 (HepG2 [4]) | IC50 (Bel-7402) | IC50 (SGC-7901) | also measured
CC[C@@]1(OC(=O)CNC(=O)CCC(=O)[O-])C(=O)OCc2c1cc1n(c2=O)Cc2cc3c4c(ccc3nc2-1)OC(C(C)C)NC4=O.[Na+] (some centres undefined) | – | – | – | – | – | – | – | – | – | – | MTD (Mus musculus [1]): 10 mg/kg; solubility [2]: 3400 µg/mL; MTD (Mus musculus [3]): 16 mg/kg
CC[C@@]1(OC(=O)CNC(=O)CCC(=O)[O-])C(=O)OCc2c1cc1n(c2=O)Cc2cc3c(ccc4oc(C(C)C)nc43)nc2-1.[Na+] | – | – | – | – | – | – | – | – | – | – | MTD (Mus musculus [1]): 30 mg/kg; solubility [2]: 5070 µg/mL; MTD (Mus musculus [3]): 60 mg/kg
CC[C@@]1(O)C(=O)OCc2c1cc1n(c2=O)Cc2cc3c(ccc4oc(-c5ccccn5)nc43)nc2-1 | 1500 nM | > 10000 nM | > 10000 nM | 6440 nM | 2040 nM | 2000 nM | 54 nM | 71 nM | 1930 nM | > 10000 nM | –
CC[C@@]1(O)C(=O)OCc2c1cc1n(c2=O)Cc2cc3c(ccc4ocnc43)nc2-1 | 2060 nM | 11600 nM | 3080 nM | 2310 nM | 2570 nM | 1540 nM | 231 nM | 180 nM | 2440 nM | > 10000 nM | –
CC[C@@]1(OC(=O)CNC(=O)CCC(=O)O)C(=O)OCc2c1cc1n(c2=O)Cc2cc3c(ccc4oc(C(C)C)nc43)nc2-1 | – | – | – | – | – | – | – | – | – | – | inhibition [5]: Active; inhibition [6]: Active; inhibition [7]: Active; Activity (Mus musculus [8]): Active; inhibition [9]: Active; TGI (HepG2 [10]): Dose-dependent effect; Activity (Mus musculus [11]): Active
CC[C@@]1(OC(=O)CNC(=O)CCC(=O)O)C(=O)OCc2c1cc1n(c2=O)Cc2cc3c(ccc4ocnc43)nc2-1 | 92 nM | > 10000 nM | > 10000 nM | > 10000 nM | 916 nM | 348 nM | 64 nM | 55 nM | 275 nM | > 10000 nM | IC50 (SK-N-SH): 348 nM
CC[C@@]1(O)C(=O)OCc2c1cc1n(c2=O)Cc2cc3c(ccc4oc(CC(C)C)nc43)nc2-1 | 3370 nM | > 10000 nM | 11000 nM | 7860 nM | 2200 nM | 2140 nM | 90 nM | 79 nM | 2140 nM | > 10000 nM | –
